Experimental data as given in patent publication US20250171744A1, “METHODS OF REPROGRAMMING SOMATIC CELLS AND MATERIALS RELATED THERETO” (CITY OF HOPE, priority 2019, published 2025).
Entries after “also recorded” stand apart in the source; their conditions may differ.

Assays:
[1] = system: human dermal fibroblast (HDF) cells; experiment: Cell proliferation under prolonged MTX/PTX application, with or without HT (FIG. 16); type: cell-based; settings: controlled application, 5% dialyzed-FBS DMEM, 1 μM MTX for 7-days
Procedure: (§1) The cells were grown in 5% dialyzed-FBS DMEM medium. 293T cells were treated with 500 nM MTX, and HF57 cells and HDF cells were treated with 1 μM MTX for 7-days. Because inhibition of DHFR and TS by folate antagonists (MTX, PTX) results in a deficiency in the cellular pools of thymidylate and purines and thus a decrease in nucleic acid synthesis, sodium hypoxanthine (10 mM) and thymidine (1.6 mM) were added to the medium to overcome the effects of MTX and PTX. […] The cells were harvested for DNA/RNA isolation and analyzed for gene expression and DNA methylation.

[2] = system: human fibroblast cells (HF57); experiment: as above; type: cell-based; settings: controlled application, 5% dialyzed-FBS DMEM, 1 μM MTX for 7-days
Procedure: as §1

[3] = system: human embryonic kidney cells (293T); experiment: as above; type: cell-based; settings: for cell proliferation: prolonged, controlled application, 5% dialyzed-FBS DMEM, 500 nM MTX for 7-days
Procedure: as §1
MTX and PTX are antifolates that inhibit enzymes (particularly thymidylate synthase and dihydrofolate reductase) involved in folate metabolism and purine and pyrimidine synthesis (100-103). Since these compounds are competitive inhibitors of […], these compounds were exogenously applied to the WT (HEK 293T and HF57) cells. As shown in FIGS. 16-17, application of MTX and PTX to the normal growing WT cells produced the phenotypes similar to the FPGS^ko. Several concentrations of MTX ranging from 75 nM to 500 nM were tested. The impact of MTX depended on the cell lines, exposure time, and the supplemental media. A concentration as low as 75 nM achieved similar results when a lower concentration of FBS was used, and the best results for 293T cells were obtained using MTX at a concentration ranging between 200 nM and 500 nM. Further, the pharmacological impacts of folate inhibitors on global DNA methylation were examined. 293T (control) cells were treated with 500 nM MTX and 1 μM PTX for at least 7 days before harvesting the cells and isolating the genomic DNA (gDNA). Equal amount of gDNA (100 ng) was analyzed with 5mC enzyme-linked immunosorbent assay (ELISA) (EpiGentek).

293T cells = experiment: Global DNA methylation, 5mC ELISA (FIG. 18); type: cell-based, human; settings: 500 nM MTX, 1 μM PTX; 7-days; vs untreated cells
Procedure: Equal amount of DNA (100 ng) was analyzed with 5mC enzyme-linked immunosorbent assay (ELISA) (EpiGentek). […] Error bars represent the standard error for at least three independent experiments and three technical replicates.
Global DNA methylation measurement Global 5-methylcytosine (5-mC) levels were quantified using the MethylFlash Methylated DNA Quantification Kits (Epigentek, Farmingdale, NY, USA). The DNA concentration was determined using the Qubit Assay (Thermo Fisher Scientific) according to the manufacturer's protocol. Briefly, 100 ng of DNA was used for incubation with both capture and detection antibodies using MethylFlash Methylated DNA Quantification Kit (Colorimetric) from Epigentek. Subsequently, measurements of the absorbance of the sample at 450 nm in a microplate spectrophotometer (BioTek Instruments, Winooski, VT, USA) were performed with the percentage of the whole genome 5-mC calculation according to manufacturer's instructions. Genomic methylation levels in study samples were expressed as percentage of 5-mC.
MTX and PTX are antifolates that inhibit enzymes (particularly thymidylate synthase and dihydrofolate reductase) involved in folate metabolism and purine and pyrimidine synthesis (100-103). […] Equal amount of gDNA (100 ng) was analyzed with 5mC enzyme-linked immunosorbent assay (ELISA) (EpiGentek).

[4] = system: MTX/PTX treated and SSEA4 positive cells; experiment: Cardiomyocyte marker expression in cardiomyocytes differentiation medium (FIG. 31); type: cell-based, human
Procedure: MTX/PTX treated and SSEA4 positive cells were maintained on Matrigel-coated 6-well plates in mTeSR1 medium. To induce differentiation, cells with EB-like morphology were dissociated with Accutase (Invitrogen) at 37° C. for 5 minutes and then single cell suspension was seeded onto a Matrigel-coated cell-culture dish at 100,000 cell/cm^2 in mTeSR1 supplemented with 5 μM ROCK inhibitor (Y-27632) for 24 hours. The cells then were cultured in mTeSR1 medium, which was changed daily. Next, 8 μl of 36 mM CHIR99021 were added into 24 ml RPMI/B27-insulin medium to make 12 μM CHIR99021 RPMI/B27-insulin medium and 2-ml of this were added to each well after the old mTeSR1 medium was removed. Exactly 24 hours after adding CHIR, the medium was replaced with 2 ml room temperature RPMI/B27-insulin. The plate was put back into the 37° C., 5% CO2 incubator. 72 hours post addition of CHIR99021, 1 ml medium from each well was removed and the remaining 1-ml was supplemented with 1-ml RPMI/B27-insulin with 5 μM IWP2 (WNT pathway inhibitor). After 48 hours, the medium was replaced with fresh RPMI/B27-insulin and this was incubated at 37° C., 5% CO2 incubator. After this, every 2-days, the old medium was removed from each well of the 12-well plate and 2 ml/well room temperature RPMI/B27 medium was added and incubated at 37° C., 5% CO2. Spontaneous contraction should occur by day 14 and spontaneous beating can be maintained for several weeks. […] The expression of the key cardiomyocyte markers, Nkx2, which is an early cardiac transcriptional factor, indicative of cardiac progenitor phenotype, and cTNT, which is cardiac troponin T, a muscle contractility regulatory protein, indicative of a mature cardiac phenotype, were tested.

Compound | cell proliferation [1] | cell proliferation [2] | cell proliferation [3] | concentration as low as which achieved similar results ([3]; when a lower concentration of FBS was used) [nM] | global DNA methylation (5mC content) (293T cells) | expression of Nkx2 [4] | expression of cTNT [4]
CN(Cc1cnc2nc(N)nc(N)c2n1)c1ccc(C(=O)N[C@@H](CCC(=O)O)C(=O)O)cc1 [MTX, methotrexate] | reduced cell proliferation | reduced cell proliferation | reduced cell proliferation | 75 | significantly lower levels of DNA methylation; also recorded: significant reduction in global DNA methylation | significantly up-regulated | significantly up-regulated
Nc1nc2[nH]cc(CCc3ccc(C(=O)N[C@@H](CCC(=O)O)C(=O)O)cc3)c2c(=O)[nH]1 [PTX, pemetrexed] | reduced cell proliferation | reduced cell proliferation | reduced cell proliferation | – | significantly lower levels of DNA methylation; also recorded: significant reduction in global DNA methylation | significantly up-regulated | significantly up-regulated
